Measured values published in patent publication US6737383B1, “Herbicidal oxadiazolidines” (priority 1999, dated 2004).

Experiments:
[1] = test system: smallflower flatsedge; assay: Test B flood test smallflower flatsedge; format: in vivo, Cyperus difformis
Method in brief: (§1)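 Flood test on plants grown to the 2-leaf stage; treated plants kept in greenhouse twelve to sixteen days, then visually rated against controls on a 0 (no effect) to 10 (complete control) scale.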

[2] = test system: purple nutsedge; assay: Test B pre/postemergence purple nutsedge; format: in vivo, Cyperus rotundus
Method in brief: (§2)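 Herbicidal effect was estimated by eye on a ten-point control scale after plants spent twelve to sixteen days in a greenhouse following soil or foliar treatment. Foliar sprays targeted plants at one to four leaves; all doses were formulated in a non-phytotoxic solvent with surfactant.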

[3] = test system: duck salad; assay: Test B flood test duck salad; format: in vivo, Heteranthera limosa
Method in brief: as §1

[4] = test system: velvetleaf; assay: Test B pre/postemergence velvetleaf; format: in vivo, Abutilon theophrasti
Method in brief: as §2

[5] = test system: rice; assay: Test B flood test rice; format: in vivo, Oryza sativa
Method in brief: as §1

[6] = test system: rape; assay: Test B pre/postemergence rape; format: in vivo, Brassica napus
Method in brief: as §2

[7] = test system: bedstraw; assay: Test B pre/postemergence bedstraw; format: in vivo, Galium aparine
Method in brief: as §2

[8] = test system: morningglory; assay: Test B pre/postemergence morningglory; format: in vivo, Ipomoea hederacea
Method in brief: as §2

[9] = test system: wild oat; assay: Test B pre/postemergence wild oat; format: in vivo, Avena fatua
Method in brief: as §2

[10] = test system: blackgrass; assay: Test B pre/postemergence blackgrass; format: in vivo, Alopecurus myosuroides
Method in brief: as §2

[11] = test system: corn; assay: Test B pre/postemergence corn; format: in vivo, Zea mays
Method in brief: as §2

[12] = test system: surinam grass; assay: Test B pre/postemergence surinam grass; format: in vivo, Brachiaria decumbens
Method in brief: as §2

[13] = test system: bamyardgrass; assay: Test B flood test barnyardgrass; format: in vivo, Echinochloa crus-galli
Method in brief: as §1

[14] = test system: crabgrass; assay: Test B pre/postemergence crabgrass; format: in vivo, Digitaria sanguinalis
Method in brief: as §2

[15] = test system: wheat; assay: Test B pre/postemergence wheat; format: in vivo, Triticum aestivum
Method in brief: as §2

[16] = test system: cocklebur; assay: Test B pre/postemergence cocklebur; format: in vivo, Xanthium strumarium
Method in brief: as §2

[17] = test system: pigweed; assay: Test B pre/postemergence pigweed; format: in vivo, Amaranthus retroflexus
Method in brief: as §2

[18] = test system: sugar beet; assay: Test B pre/postemergence sugar beet; format: in vivo, Beta vulgaris
Method in brief: as §2

[19] = test system: soybean; assay: Test B pre/postemergence soybean; format: in vivo, Glycine max
Method in brief: as §2

[20] = test system: giant foxtail; assay: Test B pre/postemergence giant foxtail; format: in vivo, Setaria faberii
Method in brief: as §2

[21] = Rate 62 g/ha, flood test species, Pre-emergence, visual evaluation after twelve to sixteen days
[22] = Rate 125 g/ha, under heading Pre-emergence, flood test species, visual evaluation after twelve to sixteen days
[23] = Rate 250 g/ha, Pre-emergence (flood test species), scale 0 to 10, 0 is no effect, 10 is complete control
[24] = Rate 500 g/ha, Pre-emergence section of Table B, 0 to 10 scale (0 no effect, 10 complete control)
[25] = Postemergence, Rate 62 g/ha, scale 0 to 10, 0 is no effect, 10 is complete control
[26] = Postemergence, Rate 125 g/ha, scale of 0 to 10 where 0 is no effect and 10 is complete control
[27] = Postemergence, Rate 250 g/ha, scale of 0 to 10, 0 is no effect, 10 is complete control
[28] = Postemergence, Rate 500 g/ha, scale of 0 to 10 where 0 is no effect and 10 is complete control
[29] = Preemergence, Rate 62 g/ha, scale 0 to 10 (0 no effect, 10 complete control)
[30] = Preemergence, Rate 125 g/ha, scale of 0 to 10 where 0 is no effect and 10 is complete control
[31] = Preemergence, Rate 500 g/ha, scale of 0 to 10 where 0 is no effect and 10 is complete control

CCC(C)n1c(=O)on(C(=O)N(c2ccccc2)C(C)C)c1=O (stereo not drawn) [Compound 610]
Plant response rating, S. Flatsedge (0 to 10 scale, 0 is no effect, 10 is complete control) [1, 21]: 0
S. Flatsedge plant response rating (0 to 10 scale, 0 is no effect, 10 is complete control) [1, 22]: 0
S. Flatsedge plant response rating [1, 23]: 0
S. Flatsedge plant response rating [1, 24]: 8
Plant response rating, Nutsedge [2, 25]: 0
Plant response rating, Nutsedge [2, 26]: 0
Nutsedge plant response rating [2, 27]: 5
Plant response rating, Nutsedge [2, 28]: 6
Nutsedge plant response rating [2, 29]: 0
Nutsedge plant response rating [2, 30]: 0
Plant response rating, Nutsedge [2, 31]: 3
Plant response rating, Ducksalad (0 to 10 scale, 0 is no effect, 10 is complete control) [3, 21]: 0
Ducksalad plant response rating (0 to 10 scale, 0 is no effect, 10 is complete control) [3, 22]: 0
Ducksalad plant response rating [3, 23]: 0
Ducksalad plant response rating [3, 24]: 7
Plant response rating, Velvetleaf [4, 25]: 0
Plant response rating, Velvetleaf [4, 26]: 3
Velvetleaf plant response rating [4, 27]: 7
Plant response rating, Velvetleaf [4, 28]: 7
Velvetleaf plant response rating [4, 29]: 7
Velvetleaf plant response rating [4, 30]: 7
Plant response rating, Velvetleaf [4, 31]: 10
Plant response rating, Rice (0 to 10 scale, 0 is no effect, 10 is complete control) [5, 21]: 0
Rice plant response rating (0 to 10 scale, 0 is no effect, 10 is complete control) [5, 22]: 0
Rice plant response rating [5, 23]: 2
Rice plant response rating [5, 24]: 8
Plant response rating, Rape [6, 25]: 0
Plant response rating, Rape [6, 26]: 2
Rape plant response rating [6, 27]: 3
Plant response rating, Rape [6, 28]: 5
Rape plant response rating [6, 29]: 3
Rape plant response rating [6, 30]: 8
Plant response rating, Rape [6, 31]: 10
Plant response rating, Bedstraw [7, 25]: 0
Bedstraw plant response rating [7, 27]: 4
Plant response rating, Bedstraw [7, 28]: 9
Bedstraw plant response rating [7, 31]: 10
Plant response rating, Morningglory [8, 25]: 8
Plant response rating, Morningglory [8, 26]: 8
Morningglory plant response rating [8, 27]: 8
Plant response rating, Morningglory [8, 28]: 9
Morningglory plant response rating [8, 29]: 0
Morningglory plant response rating [8, 30]: 3
Plant response rating, Morningglory [8, 31]: 8
Plant response rating, Wild oats [9, 25]: 0
Plant response rating, Wild oats [9, 26]: 3
Wild oats plant response rating [9, 27]: 5
Plant response rating, Wild oats [9, 28]: 9
Wild oats plant response rating [9, 29]: 5
Wild oats plant response rating [9, 30]: 6
Plant response rating, Wild oats [9, 31]: 10
Plant response rating, Blackgrass [10, 25]: 8
Plant response rating, Blackgrass [10, 26]: 9
Blackgrass plant response rating [10, 27]: 9
Plant response rating, Blackgrass [10, 28]: 10
Blackgrass plant response rating [10, 29]: 8
Blackgrass plant response rating [10, 30]: 9
Blackgrass plant response rating (0 to 10 scale) ([10]; Preemergence, Rate 250 g/ha): 10
Blackgrass plant response rating [10, 31]: 10
Plant response rating, Corn [11, 25]: 0
Plant response rating, Corn [11, 26]: 0
Corn plant response rating [11, 27]: 2
Plant response rating, Corn [11, 28]: 5
Corn plant response rating [11, 29]: 0
Corn plant response rating [11, 30]: 3
Corn plant response rating (0 to 10 scale) ([11]; Preemergence, Rate 250 g/ha): 7
Plant response rating, Corn [11, 31]: 8
Plant response rating, B. signalgrass [12, 25]: 0
Plant response rating, B. signalgrass [12, 26]: 6
B. signalgrass plant response rating [12, 27]: 7
Plant response rating, B. signalgrass [12, 28]: 9
B. signalgrass plant response rating [12, 29]: 6
B. signalgrass plant response rating [12, 30]: 8
B. signalgrass plant response rating (0 to 10 scale, 0 is no effect, 10 is complete control) ([12]; Preemergence, Rate 250 g/ha): 9
B. signalgrass plant response rating [12, 31]: 10
Plant response rating, Barnyardgrass (0 to 10 scale, 0 is no effect, 10 is complete control) [13, 21]: 0
Barnyardgrass plant response rating (0 to 10 scale, 0 is no effect, 10 is complete control) [13, 22]: 0
Barnyardgrass plant response rating [13, 23]: 0
Barnyardgrass plant response rating [13, 24]: 8
Plant response rating, Crabgrass [14, 25]: 9
Plant response rating, Crabgrass [14, 26]: 9
Crabgrass plant response rating [14, 27]: 9
Plant response rating, Crabgrass [14, 28]: 9
Crabgrass plant response rating [14, 29]: 9
Crabgrass plant response rating [14, 30]: 10
Plant response rating, Crabgrass [14, 31]: 10
Plant response rating, Wheat [15, 25]: 0
Plant response rating, Wheat [15, 26]: 1
Wheat plant response rating [15, 27]: 4
Plant response rating, Wheat [15, 28]: 5
Wheat plant response rating [15, 29]: 2
Wheat plant response rating [15, 30]: 2
Plant response rating, Wheat [15, 31]: 6
Plant response rating, Cocklebur [16, 25]: 0
Plant response rating, Cocklebur [16, 26]: 1
Cocklebur plant response rating [16, 27]: 0
Plant response rating, Cocklebur [16, 28]: 2
Cocklebur plant response rating [16, 29]: 0
Cocklebur plant response rating [16, 30]: 0
Cocklebur plant response rating (0 to 10 scale) ([16]; Preemergence, Rate 250 g/ha): 0
Plant response rating, Cocklebur [16, 31]: 3
Plant response rating, Redroot pigweed [17, 25]: 0
Plant response rating, Redroot pigweed [17, 26]: 2
Redroot pigweed plant response rating [17, 27]: 6
Plant response rating, Redroot pigweed [17, 28]: 7
Redroot pigweed plant response rating [17, 29]: 10
Redroot pigweed plant response rating [17, 30]: 10
Plant response rating, Redroot pigweed [17, 31]: 10
Plant response rating, Sugarbeets [18, 25]: 0
Plant response rating, Sugarbeets [18, 26]: 0
Sugarbeets plant response rating [18, 27]: 0
Plant response rating, Sugarbeets [18, 28]: 0
Sugarbeets plant response rating [18, 29]: 3
Sugarbeets plant response rating [18, 30]: 7
Plant response rating, Sugarbeets [18, 31]: 8
Plant response rating, Soybean [19, 25]: 5
Plant response rating, Soybean [19, 26]: 7
Soybean plant response rating [19, 27]: 8
Plant response rating, Soybean [19, 28]: 9
Soybean plant response rating [19, 29]: 0
Soybean plant response rating [19, 30]: 6
Plant response rating, Soybean [19, 31]: 8
Plant response rating, Giant foxtail [20, 25]: 8
Plant response rating, Giant foxtail [20, 26]: 7
Giant foxtail plant response rating [20, 27]: 9
Plant response rating, Giant foxtail [20, 28]: 9
Giant foxtail plant response rating [20, 29]: 9
Giant foxtail plant response rating [20, 30]: 10
Plant response rating, Giant foxtail [20, 31]: 10
